This note sets out measurements from PubChem BioAssay (NCI).

Among the test systems are SK-MEL-28 melanoma; ACHN renal; SF-268 CNS; IGROV1 ovarian; SNB-19 CNS; SW-620 colon; HCT-116 colon; A498 renal; HOP-62 NSCLC; SF-539 CNS; NCI-H226 lung; SR leukemia; OVCAR-5 ovarian; HCC-2998 colon; DU-145 prostate.
Common to all, as to assay: NCI anticancer screen, dose series, 48 h

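1) Cells in 96-well plates. 2) Compound, 48 h, 5 concentrations. 3) Linear interpolation between surrounding doses. 4) Unreached endpoint = highest concentration. The concentration for full growth arrest is given as TGI.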

With `CS/C(C)=N/OC(=O)NCCCCNc1ccc(N=[N+]=[N-])cc1`, the TGI was greater than 100 µM with SK-MEL-28 melanoma; 97.2 µM with ACHN renal; greater than 100 µM in the assay on SF-268 CNS; greater than 100 µM with IGROV1 ovarian; greater than 100 µM with SNB-19 CNS; greater than 100 µM in the assay with SW-620 colon. For the same compound, the TGI in the assay with HCT-116 colon, in the assay on A498 renal, in the assay with HOP-62 NSCLC, with SF-539 CNS, with NCI-H226 lung and with SR leukemia was greater than 100 µM in each case. The TGI is greater than 100 µM in the assay with OVCAR-5 ovarian and 56.1 µM with HCC-2998 colon.

For the compound `O=c1oc2c(ccc3ccccc32)cc1C1=CSC2=NCCN12`, the TGI in the assay with SK-MEL-28 melanoma, with ACHN renal, in the assay with SF-268 CNS, with IGROV1 ovarian, in the assay with SNB-19 CNS and in the assay with SW-620 colon was greater than 100 µM in each case. Also, the TGI in the assay with HCT-116 colon was greater than 100 µM; in the assay on HOP-62 NSCLC it was greater than 100 µM; in the assay with DU-145 prostate, 75.1 µM; in the assay on SF-539 CNS, greater than 100 µM; in the assay on SR leukemia it was greater than 100 µM; in the assay on HCC-2998 colon it was 38.7 µM.

For `O=C(Cc1ccccc1)NNc1nc(NNC(=O)c2ccncc2)nc(Nc2cccc(Cl)c2)n1`, the TGI in the assay with SK-MEL-28 melanoma, in the assay with SF-268 CNS, with IGROV1 ovarian, in the assay with SW-620 colon, with HOP-62 NSCLC and in the assay with DU-145 prostate was greater than 10 µM each time. For the same compound, the TGI in the assay on SF-539 CNS, with SR leukemia and with HCC-2998 colon was greater than 10 µM in each case.

Consider `CCOc1ncn(-c2ccc(NC(=S)NC34CC5CC(CC(C5)C3)C4)cc2)n1`, for which the TGI in the assay on SK-MEL-28 melanoma, in the assay with SF-268 CNS, in the assay on IGROV1 ovarian, with SNB-19 CNS, in the assay with SW-620 colon and in the assay with HCT-116 colon was greater than 100 µM throughout. Besides, the TGI in the assay on HOP-62 NSCLC, in the assay on DU-145 prostate, in the assay with SF-539 CNS, in the assay with SR leukemia, in the assay with OVCAR-5 ovarian and in the assay with HCC-2998 colon was greater than 100 µM in each case.

Regarding `NC(CCC(=O)O)(CCC(=O)O)CCC(=O)O`, the TGI in the assay with ACHN renal, in the assay on SF-268 CNS, in the assay with IGROV1 ovarian, with SNB-19 CNS, in the assay with SW-620 colon and in the assay with HCT-116 colon was greater than 100 µM each time. Also, the TGI in the assay with DU-145 prostate, in the assay on SF-539 CNS, in the assay on NCI-H226 lung, in the assay with SR leukemia and in the assay on OVCAR-5 ovarian was greater than 100 µM throughout.

With `NNCCc1n[nH]c(=O)n1N`, the TGI in the assay on SK-MEL-28 melanoma, in the assay on ACHN renal, in the assay on SF-268 CNS, with IGROV1 ovarian, in the assay on SNB-19 CNS and in the assay on SW-620 colon was greater than 100 µM each time. Further, the TGI in the assay on HCT-116 colon, with HOP-62 NSCLC, with DU-145 prostate, in the assay with SF-539 CNS, with NCI-H226 lung and in the assay with SR leukemia was greater than 100 µM each time. For the same compound, the TGI in the assay with OVCAR-5 ovarian and with HCC-2998 colon was greater than 100 µM in each case.

In the case of `CC(C)(C)OC(=O)N(CCNS(=O)(=O)c1cccc2cnccc12)CCC(=O)ON1C(=O)CCC1=O`, the TGI in the assay with SK-MEL-28 melanoma, in the assay with ACHN renal, in the assay with SF-268 CNS, with IGROV1 ovarian, in the assay on SNB-19 CNS and in the assay on SW-620 colon was greater than 100 µM each time. The TGI in the assay on HCT-116 colon, in the assay with HOP-62 NSCLC, in the assay on DU-145 prostate, in the assay on NCI-H226 lung, in the assay on SR leukemia and in the assay on OVCAR-5 ovarian was greater than 100 µM in each case.

For `Cn1c(=O)c2c(ncn2CCCCOc2ccc3c(c2)[n+]([O-])nc(N)[n+]3[O-])n(C)c1=O`, the TGI in the assay with SK-MEL-28 melanoma was greater than 100 µM; in the assay with SF-268 CNS it was greater than 100 µM; with IGROV1 ovarian, 67.6 µM; in the assay with SNB-19 CNS, greater than 100 µM; in the assay with SW-620 colon, greater than 100 µM; in the assay with HCT-116 colon, greater than 100 µM. Further, the TGI in the assay with HOP-62 NSCLC is greater than 100 µM; in the assay on DU-145 prostate, greater than 100 µM; in the assay with SF-539 CNS, 70 µM; with NCI-H226 lung, 79.6 µM; in the assay with SR leukemia it was greater than 100 µM; with HCC-2998 colon, 52.6 µM.

With `CC(=O)O[C@H]1CCn2c3c(c(C)c21)C(=O)C(N1CC1)=C(C)C3=O`, the TGI in the assay on ACHN renal, with SF-268 CNS, with IGROV1 ovarian, with SNB-19 CNS, in the assay on SW-620 colon and with HCT-116 colon was greater than 10 µM each time. The TGI with HOP-62 NSCLC, with DU-145 prostate, with SF-539 CNS, with NCI-H226 lung, in the assay with SR leukemia and in the assay with OVCAR-5 ovarian was greater than 10 µM in each case. Besides, the TGI with HCC-2998 colon was greater than 10 µM.
